For assay [1], the system named is CLP mice. Nature of the assay: Survival of CLP sepsis mice. Format: in vivo, mouse. As to the method: (§1) Male WT ICR mice were used to evaluate a therapeutic effect of Ac-PGP. IFN-γ-deficient mice (kindly provided by Y. K. Kim at the Pohang University of Science and Technology, Pohang, Republic of Korea) were used for mechanism study. All Examples in which animals were used were performed according to the instructions with permission of the Institutional Review Board (IRB) for the care and management of laboratory animals at Dong-A University. In the case of the CLP, mice were anesthetized with pentothal sodium (50 mg/kg, intraperitoneally injected), and abdomen of each mouse was cut along a central cutting line to expose an appendix. Then, an ileocecal valve of the appendix was tied up, both surfaces of the ileocecal valve were punctured twice with a 22-gauge needle (or punctured once to measure a production amount of cytokines), and the abdomen was sutured. Sham CLP mice were treated in the same manner as described above, except that CLP of the appendix was not performed. A survival rate of the mice was monitored every day for 10 days. In the case of the LPS or E. coli model, E. coli and LPS were intraperitoneally injected at concentrations of 1×10^9 cells/mouse and 60 mg/kg, respectively. A survival rate of the mice was monitored once a day for 10 days.
An experimental therapeutic effect of Ac-PGP on sepsis was examined in CLP using albino Institute of Cancer Research (ICR) mice. Survival of the mice was monitored for 10 days after CLP. On the second day after the CLP, only 20% of untreated WT mice survived (FIG. 1).
The Ac-PGP was evaluated to determine whether the antiseptic activity of Ac-PGP served through CXCR2 that was a known receptor of Ac-PGP.

Assay [2] deals with E. coli-vaccinated mice. Briefly: Survival in E. coli-induced sepsis model. The note with it: E. coli 1×10^9 cells/mouse; 17.5 mg/kg four times from 2 hours after vaccination; compared with PBS. Format: in vivo. As to the method: as §1
In another mouse model of sepsis, a therapeutic effect of Ac-PGP was also evaluated.

Assay [3] deals with CLP mice. Briefly: Cytokines in peritoneal fluid after CLP (ELISA). Format: in vivo, mouse. As to the method: To measure a production amount of cytokines induced by CLP in a peritoneal lavage fluid, mice were provided with Ac-PGP for 2 hours, 14 hours, 26 hours, and 38 hours after CLP. A peritoneal lavage fluid was collected within various time zones between 4 and 72 hours after the CLP, and cytokines present in the peritoneal fluid was measured using ELISA (BD Biosciences Pharmingen).
An effect of the Ac-PGP on a pro-inflammatory cytokine in a peritoneal fluid by CLP was determined from 4 to 72 hours after the CLP. The CLP induced a remarkable increase in levels of pro-inflammatory cytokines (TNF-α, IL-1β and IL-6) within 24 hours (FIGS. 14 to 16). Injection of the Ac-PGP in a sepsis model by the CLP induced a remarkable change in levels of the cytokines. […] To evaluate an effect of the Ac-PGP on production of the pro-inflammatory cytokines by the LPS, in vitro production of TNF-α and IL-6 by the mouse splenocytes was evaluated. Direct release of the TNF-α and IL-6 from the mouse splenocytes by the LPS was suppressed by in vitro treatment with the Ac-PGP (FIGS. 17 and 18).
An effect of the Ac-PGP on levels of Th1 cytokines by CLP in a peritoneal fluid was also determined from 4 to 72 hours after the CLP.
On the technique in general: An ELISA detects its analyte on a solid surface through an enzyme-linked reagent.

In assay [4] the test system is bacteria in peritoneal fluids of CLP mice. Briefly: In vivo disinfection activity: bacterial colonies in peritoneal fluid after CLP. Set-up: species or system mouse; reference not given here. The note with it: 24 hours after the CLP; FIG. 10. As to the method: A peritoneal lavage fluid was collected 24 hours after CLP, and incubated at 37° C. overnight in a blood agar base plate (trypticase soy agar Deeps, Becton Dickinson). The number of colony forming units (CFUs) was counted according to a method disclosed in Yan J J et al. 2004 Nat. Med. 10:161-167.
A death rate by CLP is correlated with the number of bacterial colonies in a peritoneal fluid. Therefore, an effect of the Ac-PGP on removal of bacteria in a peritoneal fluid was examined. […] In vitro disinfection activity of the Ac-PGP was examined using neutrophils derived from a mouse. The mouse neutrophils were kept for an hour to phagocytize E. coli, and then stimulated with various concentrations of Ac-PGP (0.1 to 100 nM) for 20 minutes. […] A reactive oxygen species such as hydrogen peroxide was known as an important molecule participating in the disinfection activity. Therefore, an effect of Ac-PGP on production of hydrogen peroxide in the mouse neutrophils was examined. […] To examine a role of CXCR2 in production of hydrogen peroxide by the Ac-PGP, the mouse neutrophils were pretreated with a CXCR2 antagonist (SB225002) before they were treated with the Ac-PGP.

Assay [5] deals with mouse neutrophils. Briefly: H2O2 production in mouse neutrophils. Format: cell-based. The note with it: various concentrations, 10 minutes, cytochalasin B 5 μM; FIG. 12. As to the method: Mouse neutrophils were separated from peripheral blood using a Histopaque-1077 solution (Sigma) (Bae Y S et al. 2001 Blood. 97: 2854-2862). The neutrophils separated from normal mice were stimulated with various concentrations of Ac-PGP for 10 minutes in the presence of cytochalasin B (5 μM). To identify the role of mCXCR2, the neutrophils were pre-incubated in various concentrations of SB225002 or a vehicle (DMSO) for 30 minutes in a stationary environment, and Ac-PGP (20 μM) was added, and incubated for 10 minutes. H2O2 in a supernatant was measured using a H2O2 measurement kit (Molecular probe).
A death rate by CLP is correlated with the number of bacterial colonies in a peritoneal fluid. Therefore, an effect of the Ac-PGP on removal of bacteria in a peritoneal fluid was examined. […] In vitro disinfection activity of the Ac-PGP was examined using neutrophils derived from a mouse. The mouse neutrophils were kept for an hour to phagocytize E. coli, and then stimulated with various concentrations of Ac-PGP (0.1 to 100 nM) for 20 minutes. […] A reactive oxygen species such as hydrogen peroxide was known as an important molecule participating in the disinfection activity. Therefore, an effect of Ac-PGP on production of hydrogen peroxide in the mouse neutrophils was examined. […]

Assay [6] concerns human neutrophils. Nature of the assay: Cytokine production by LPS-stimulated human neutrophils. Format: cell-based. The note with it: human neutrophils stimulated with LPS. The source says:
All kinds of protocols used in human beings were approved by the Institutional Review Board (IRB) at Dong-A University Hospital, and prior consents were obtained from all blood donors. Peripheral blood was collected from healthy donors, and human peripheral monocytes were separated using a Histopaque-1077 gradient. Neutrophils were separated through methods such as dextran precipitation of red blood cell, hypotonic lysis, and usage of lymphocyte isolation medium gradient, as known in the related art (Bae, Y. S. et al. Blood 97, 2854-2862(2001)). The separated human leukocytes were used immediately.
Next, an effect of the Ac-PGP on production of cytokines by human neutrophils and PBMCs was examined. […] A human CXCR2 chemokine agonist CXCL8 had few effects on production of TNF-α or IFN-γ stimulated with LPS (FIG. 28 to FIG. 31). Therefore, the Ac-PGP could improve both antiseptic activities in leukocytes derived from human beings and mice.

As for acetylated-Pro-Gly-Pro [Ac-PGP], the survival rate result in assay [1] (17.5 mg/kg injected 3 or 4 times from 2 hours after CLP at an interval of 12 hours, FIG. 2) is on record as “highly increased”; in assay [1] (CLP mice pretreated with CXCR2-selective antagonist SB225002, FIG. 5), “could not improve the survival rate”; in assay [1] (CXCR2-deficient sepsis mice, FIG. 6) it was “could not improve a survival rate”; in assay [1] (administered 4 to 5 times at 17.5 mg/kg), “highest increase in survival rate”; in assay [1] (subcutaneous administration 2 hours after CLP, various doses, monitored 10 days, FIG. 1) it was “remarkably increased the survival rate in a dose-dependent manner”. In addition, the “therapeutic effect (survival)” value in assay [1] (injected 10 hours after the CLP, FIG. 3) is “a therapeutic effect was still exhibited”. Besides, the “survival of the mice” value in assay [1] (injection of 7.5, 12.5 or 17.5 mg/kg, compared with PBS-injected control, FIG. 1) was “remarkably increased survival of the mice”. In assay [2], the death rate result is recorded as “death rate decreased”. Moreover, the “level of TNF-α in peritoneal fluid” value in assay [3] (4 to 72 hours after CLP, FIG. 14) is listed as “induced a decrease in levels”. For the same substance, in assay [3] (4 to 72 hours after CLP, FIG. 15), the “level of IL-1β in peritoneal fluid” value is listed as “induced a decrease in levels”. In addition, the “level of IL-6 in peritoneal fluid” value in assay [3] (4 to 72 hours after CLP, FIG. 16) is reported as “induced a decrease in levels”. For the same substance, the “level of IFN-γ in peritoneal fluid” value in assay [3] (4 to 72 hours after CLP, FIG. 19) is “remarkably increased”. Also, the “level of IL-12p70 in peritoneal fluid” value in assay [3] (4 to 72 hours after CLP, FIG. 20) is given as “remarkably increased”. Besides, the “level of IL-2 in peritoneal fluid” value in assay [3] (4 to 72 hours after CLP, FIG. 21) is reported as “remarkably increased”. For the same substance, the “level of IFN-γ in the peritoneal fluid” value in assay [3] (24 hours after the CLP) is recorded as “improved levels”. Moreover, the “level of IL-12 in the peritoneal fluid” value in assay [3] (24 hours after the CLP) is on record as “improved levels”. Moreover, in assay [4], the “number of bacterial colonies in the peritoneal fluid” value came to 82.1%. In assay [5], the “production of hydrogen peroxide” value is on record as “strongly increased production of hydrogen peroxide in a concentration-dependent manner”. For the same substance, the “production of TNF-α” value in assay [6] (FIG. 28) is listed as “remarkably suppressed”. Further, the “production of IFN-γ” value in assay [6] (FIG. 30) is recorded as “remarkably improved”.

The record behind these values is patent US8937038B2, “Composition containing peptide ligand that bonds with CXCR2 for treating infective and inflammatory diseases” (priority 2010, dated 2015).
